Measured values published in article PMC12546632, “The role of cytochrome bc1 inhibitors in future tuberculosis treatment regimens” (Nature Communications, 2025).
Converted amounts (≈) assume the structure as drawn. “And” between values parts separate entries of the source, which are not always exact repeats. Equal values may be shown once. “Also recorded” adds a separate entry of the source. Read-outs that look alike come from different tables or passages of the source. Marks after values point to notes of the source that are not given here.

How the values were obtained:
M. tuberculosis H37Rv [1] = assay: MBC99.9 determination, H37Rv; format: cell-based, Mycobacterium tuberculosis
2C9 = molecular target: T1, 2C9 (Homo sapiens, UniProt P11712); format: in vitro ADME
T1 construct: from tissue; host or cells: human liver microsomes
T1 sequence (P11712 whole entry): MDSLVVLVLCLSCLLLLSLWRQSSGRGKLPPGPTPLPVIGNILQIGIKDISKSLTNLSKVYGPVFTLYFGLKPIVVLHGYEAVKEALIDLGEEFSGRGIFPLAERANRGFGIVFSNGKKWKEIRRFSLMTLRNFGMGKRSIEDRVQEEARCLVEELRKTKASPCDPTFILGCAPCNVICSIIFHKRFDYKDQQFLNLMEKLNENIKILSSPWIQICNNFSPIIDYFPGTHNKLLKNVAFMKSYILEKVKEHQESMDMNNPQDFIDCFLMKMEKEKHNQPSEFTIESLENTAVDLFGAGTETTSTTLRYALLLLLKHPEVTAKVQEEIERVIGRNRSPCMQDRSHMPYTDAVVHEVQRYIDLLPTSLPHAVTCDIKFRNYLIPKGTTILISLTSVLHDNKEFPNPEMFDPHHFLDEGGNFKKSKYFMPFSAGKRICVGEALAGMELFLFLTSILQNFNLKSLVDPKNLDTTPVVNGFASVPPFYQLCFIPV

2C19 = molecular target: T2, 2C19 (Homo sapiens, UniProt P33261); format: in vitro ADME
T2 construct: from tissue; host or cells: human liver microsomes
T2 sequence (P33261 whole entry): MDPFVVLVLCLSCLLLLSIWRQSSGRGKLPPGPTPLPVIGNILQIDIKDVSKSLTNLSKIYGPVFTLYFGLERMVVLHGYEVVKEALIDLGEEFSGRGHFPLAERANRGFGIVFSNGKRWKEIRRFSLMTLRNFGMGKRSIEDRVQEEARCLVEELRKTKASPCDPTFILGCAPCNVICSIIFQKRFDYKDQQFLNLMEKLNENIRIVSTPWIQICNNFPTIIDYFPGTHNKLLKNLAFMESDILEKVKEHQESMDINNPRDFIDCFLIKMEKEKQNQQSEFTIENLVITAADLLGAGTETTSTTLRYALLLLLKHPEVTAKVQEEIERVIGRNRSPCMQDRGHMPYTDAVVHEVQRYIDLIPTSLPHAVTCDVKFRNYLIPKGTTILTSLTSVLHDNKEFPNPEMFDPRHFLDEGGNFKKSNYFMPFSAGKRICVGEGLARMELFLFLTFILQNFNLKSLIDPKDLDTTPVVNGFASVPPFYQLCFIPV

WT H37Rv = format: cell-based, Mycobacterium tuberculosis; conditions: biological replicates
[2] = format: in vitro ADME; conditions: hepatocytes
2D6 = molecular target: T3, 2D6 (Homo sapiens, UniProt P10635); format: in vitro ADME
T3 construct: from tissue; host or cells: human liver microsomes
T3 sequence (P10635 whole entry): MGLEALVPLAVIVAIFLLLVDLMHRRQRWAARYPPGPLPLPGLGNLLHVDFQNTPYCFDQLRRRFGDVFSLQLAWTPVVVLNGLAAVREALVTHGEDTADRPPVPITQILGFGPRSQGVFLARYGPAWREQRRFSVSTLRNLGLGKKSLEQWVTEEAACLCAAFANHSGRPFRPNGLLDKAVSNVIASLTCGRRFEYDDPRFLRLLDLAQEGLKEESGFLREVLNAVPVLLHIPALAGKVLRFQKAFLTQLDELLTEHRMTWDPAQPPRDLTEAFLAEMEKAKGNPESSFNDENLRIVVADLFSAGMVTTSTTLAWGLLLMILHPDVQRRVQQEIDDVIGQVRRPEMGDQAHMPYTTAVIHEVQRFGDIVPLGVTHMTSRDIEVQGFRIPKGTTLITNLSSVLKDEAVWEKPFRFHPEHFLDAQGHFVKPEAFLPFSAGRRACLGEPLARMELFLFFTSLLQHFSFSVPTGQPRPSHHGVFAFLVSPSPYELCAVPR

N1283 clinical isolate = format: cell-based, Mycobacterium tuberculosis; conditions: biological replicates
2C8 = molecular target: T4, 2C8 (Homo sapiens, UniProt P10632); format: in vitro ADME
T4 construct: from tissue; host or cells: human liver microsomes
T4 sequence (P10632 whole entry): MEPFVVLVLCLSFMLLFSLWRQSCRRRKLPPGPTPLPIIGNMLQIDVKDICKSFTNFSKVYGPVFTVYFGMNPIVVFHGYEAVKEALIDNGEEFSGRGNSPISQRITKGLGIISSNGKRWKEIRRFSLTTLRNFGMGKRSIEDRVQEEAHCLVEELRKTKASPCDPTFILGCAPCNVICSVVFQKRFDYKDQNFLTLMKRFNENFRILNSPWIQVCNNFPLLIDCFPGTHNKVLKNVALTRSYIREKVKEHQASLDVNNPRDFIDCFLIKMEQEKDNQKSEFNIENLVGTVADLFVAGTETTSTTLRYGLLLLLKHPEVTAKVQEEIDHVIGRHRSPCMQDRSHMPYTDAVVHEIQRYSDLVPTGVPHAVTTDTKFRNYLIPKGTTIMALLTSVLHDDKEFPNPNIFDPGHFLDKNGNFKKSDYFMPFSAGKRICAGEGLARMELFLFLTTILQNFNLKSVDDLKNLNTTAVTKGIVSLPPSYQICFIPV

M. tuberculosis H37Rv [3] = assay: MIC90 determination, H37Rv; format: cell-based, Mycobacterium tuberculosis
[4] = in vivo; for CLp as % LBF: iv, 1 mg/kg
[5] = format: in vitro ADME; conditions: for Dog Hep Clint / Human Hep Clint / Rat Hep Clint: hepatocytes; for Dog LM Clint / Human LM Clint / Mouse LM Clint / Rat LM Clint: microsomes
Experimental: (§1) Details of the metabolic stability in liver microsomes and hepatocytes together with CYP inhibition in human liver microsomes and plasma protein binding have been published previously. The CYP induction assay was conducted by Puracyp Inc (www.puracyp.com). Studies were designed to evaluate the effect of compounds on the activation of human PXR (hPXR). The DPX2TM cells harbour the human PXR gene (NR1I2) and a luciferase reporter gene linked to two promoters identified in the human CYP3A4 gene, namely XREM and PXRE. These cells were seeded in a 96-well plate. Twenty-four hours after seeding, the cells were treated with various concentrations of compounds then incubated for an additional 24 h. Following this, the number of viable cells per well were determined using Promega’s CellTiter Fluor Cytotoxicity Assay. Briefly, One-Glo was added to the same wells and reporter gene activity was assessed. The luminescence light intensity was directly proportional to the extent of PXR activation and accompanying gene transcription in the DPX2TM cells.

human PXR (hPXR) = human PXR (hPXR) (Homo sapiens, UniProt O75469); format: in vitro ADME
Chain of human PXR (hPXR) (O75469 whole entry): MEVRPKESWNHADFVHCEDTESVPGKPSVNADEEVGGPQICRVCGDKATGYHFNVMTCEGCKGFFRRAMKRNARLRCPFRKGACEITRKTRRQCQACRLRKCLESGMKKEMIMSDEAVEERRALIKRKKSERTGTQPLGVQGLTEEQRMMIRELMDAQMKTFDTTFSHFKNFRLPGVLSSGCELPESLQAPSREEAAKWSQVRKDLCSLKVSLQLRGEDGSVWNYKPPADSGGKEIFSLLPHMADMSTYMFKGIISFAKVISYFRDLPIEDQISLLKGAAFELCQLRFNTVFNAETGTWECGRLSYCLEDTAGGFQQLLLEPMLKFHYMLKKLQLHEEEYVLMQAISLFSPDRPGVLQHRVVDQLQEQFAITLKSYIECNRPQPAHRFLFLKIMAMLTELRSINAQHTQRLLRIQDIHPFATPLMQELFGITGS
Experimental: as §1

[6] = test system: Salmonella typhimurium strains TA98 and TAMix
clinical isolate, N1283 = test system: clinical isolate, N1283; design: species or system Mycobacterium tuberculosis; conditions: in vivo
H37Rv_CytBd-KO = assay: microbe, parasite or virus in culture; format: cell-based, Mycobacterium tuberculosis; conditions: read-out: MBC99.9 (H37Rv_CytBd-KO)
[7] = test system: M. tuberculosis ΔcydAB (Parent); assay: microbe, parasite or virus in culture; format: cell-based
HepG2 cells [8] = test system: HepG2 cells
[9] = test system: M. tuberculosis clinical isolates; assay: microbe, parasite or virus in culture; format: cell-based, Mycobacterium tuberculosis
1A2 = molecular target: T5, 1A2 (Homo sapiens, UniProt P05177); format: in vitro ADME
T5 construct: from tissue; host or cells: human liver microsomes
T5 sequence (P05177 whole entry): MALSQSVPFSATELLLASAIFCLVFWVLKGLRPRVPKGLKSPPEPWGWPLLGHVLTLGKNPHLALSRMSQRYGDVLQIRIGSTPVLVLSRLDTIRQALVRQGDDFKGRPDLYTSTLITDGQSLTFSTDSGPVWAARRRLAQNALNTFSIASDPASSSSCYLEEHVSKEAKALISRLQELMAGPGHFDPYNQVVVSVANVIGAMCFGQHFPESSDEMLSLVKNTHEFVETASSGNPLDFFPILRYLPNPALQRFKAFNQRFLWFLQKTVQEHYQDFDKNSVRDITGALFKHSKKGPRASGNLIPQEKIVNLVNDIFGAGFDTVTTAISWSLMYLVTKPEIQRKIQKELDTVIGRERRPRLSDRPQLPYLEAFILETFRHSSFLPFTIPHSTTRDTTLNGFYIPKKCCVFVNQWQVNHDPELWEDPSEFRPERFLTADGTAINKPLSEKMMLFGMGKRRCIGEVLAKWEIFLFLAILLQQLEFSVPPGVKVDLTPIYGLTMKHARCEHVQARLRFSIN

H37Rv_CydBd-KO = assay: microbe, parasite or virus in culture; format: cell-based, Mycobacterium tuberculosis
3A4 = molecular target: T6, 3A4 (Homo sapiens, UniProt P08684); format: in vitro ADME
T6 construct: from tissue; host or cells: human liver microsomes
T6 sequence (P08684 whole entry): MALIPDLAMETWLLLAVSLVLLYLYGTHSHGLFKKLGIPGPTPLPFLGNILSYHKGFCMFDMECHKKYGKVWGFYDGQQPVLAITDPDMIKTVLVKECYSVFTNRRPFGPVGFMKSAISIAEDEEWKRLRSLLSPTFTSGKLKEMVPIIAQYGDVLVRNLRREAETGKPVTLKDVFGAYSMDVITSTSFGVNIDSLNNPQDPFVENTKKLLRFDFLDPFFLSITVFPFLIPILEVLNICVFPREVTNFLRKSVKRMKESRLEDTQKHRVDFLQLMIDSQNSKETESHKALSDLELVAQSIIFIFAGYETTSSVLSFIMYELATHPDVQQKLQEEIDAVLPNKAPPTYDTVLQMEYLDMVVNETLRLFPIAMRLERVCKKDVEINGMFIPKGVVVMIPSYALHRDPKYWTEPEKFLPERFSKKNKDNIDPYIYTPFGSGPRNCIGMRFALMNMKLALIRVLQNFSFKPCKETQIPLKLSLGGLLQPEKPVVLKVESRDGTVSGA

[10] = test system: M. tuberculosis reference strain H37Rv; assay: Survival under monotherapy in intravenous model (related to Study C); format: in vivo, Mycobacterium tuberculosis; conditions: intravenous model
in vitro [11] = conditions: human
in vivo [12] = conditions: CD-1, mouse; for half-life: t½
HepG2 cells [13] = conditions: human, 24 h
in vivo [14] = conditions: female, Balb/c, mouse, po, 5 mg/kg
[15] = female, Balb/c, mouse, in vivo, po, 5 mg/kg
MDR-TB strains = conditions: cited from earlier work
[16] = test system: M. tuberculosis cytochrome bd knockout (CytBd-KO) strain; design: method as in PMID 40191462; conditions: acute mouse model; cited from earlier work
in vitro [17] = conditions: human; remark: listed apart in the source

Structure (SMILES): CCc1nc2ncc(C)cn2c1C(=O)NCc1ccc(N2CCN(S(=O)(=O)C(F)(F)F)C=N2)c(F)c1 [JNJ-4052]
- MBC (M. tuberculosis H37Rv [1]): > 1.25 µM
- IC50 (2C9): > 20 µM
- IC50 (2C19): > 20 µM
- CFU counts (WT H37Rv; Conc 8 nM): 50000000 CFU and 20000000 CFU and 53000000 CFU and 30000000 CFU
- CFU counts (WT H37Rv; Conc 32 nM): 17000000 CFU and 12000000 CFU
- CFU counts (WT H37Rv; Conc 128 nM): 26000000 CFU and 17000000 CFU
- Mouse Hep Clint [2]: 12 µL min-1 106 cells-1
- IC50 (2D6): > 20 µM
- CFU counts (N1283 clinical isolate; Conc 8 nM): 2200000 CFU and 6000000 CFU and 800000 CFU and 200000 CFU
- CFU counts (N1283 clinical isolate; Conc 32 nM): 150000 CFU and 400000 CFU and 80000 CFU and 50000 CFU
- CFU counts (N1283 clinical isolate; Conc 128 nM): 170000 CFU and 300000 CFU and 90000 CFU and 80000 CFU
- IC50 (2C8): > 20 µM
- MIC90 (M. tuberculosis H37Rv [3]; read-out: MIC90 (H37Rv)): 7 nM (≈ 3.69 ng/mL)
- MIC90 (M. tuberculosis H37Rv [3]; strain H37Rv (Institut Pasteur, lineage 4), read-out: MIC90): 6 nM (≈ 3.17 ng/mL)
- CLp as % LBF ([4]; mouse): ~ 11 % LBF
- Plasma protein binding, Rat (% free) [5]: 2.67 % free
- Dog Hep Clint [5]: 4.7 µL min-1 106 cells-1
- Human Hep Clint [5]: 6.7 µL min-1 106 cells-1
- Rat Hep Clint [5]: 19 µL min-1 106 cells-1
- Dog LM Clint [5]: < 7.7 µL min-1 mg protein-1
- Human LM Clint [5]: 20.4 µL min-1 mg protein-1
- Mouse LM Clint [5]: 42 µL min-1 mg protein-1
- Rat LM Clint [5]: 16.7 µL min-1 mg protein-1
- Cyp3A4 ind. (%ctrl) (human PXR (hPXR); 1 µM): 3.0 %ctrl
- Cyp3A4 ind. (%ctrl) (human PXR (hPXR); 10 µM): 21.2 %ctrl
- Mutagenicity (AMES II) [6]: negative
- CFU reduction (clinical isolate, N1283): 1.6 log10
- MBC (H37Rv_CytBd-KO): 0.3 µM (≈ 158 ng/mL)
- MIC50 ([7]; Parent (ΔcydAB)): 0.01 µM (≈ 5.28 ng/mL)
- IC20 (HepG2 cells [8]): 98.8 µM
- MIC90 ([9]; strain Mtb-0617 (Karonga, lineage 3)): 1.3 nM (≈ 0.686 ng/mL)
- MIC90 ([9]; strain Mtb-2703 (Karonga, lineage 3)): 0.13 nM (≈ 0.0686 ng/mL)
- MIC90 ([9]; strain Mtb-4779 (Karonga, lineage 2)): 0.29 nM (≈ 0.153 ng/mL)
- MIC90 ([9]; strain Mtb-4980 (Karonga, lineage 4)): 0.7 nM (≈ 0.369 ng/mL)
- MIC90 ([9]; strain Mtb-6787 (Karonga, lineage 4)): 0.71 nM (≈ 0.375 ng/mL)
- MIC90 ([9]; strain Mtb-7489 (Karonga, lineage 1)): 2.5 nM (≈ 1.32 ng/mL)
- MIC90 ([9]; strain Mtb-7496 (Karonga, lineage 3)): 0.29 nM (≈ 0.153 ng/mL)
- MIC90 ([9]; strain Mtb-9271 (Karonga, lineage 4)): 0.2 nM (≈ 0.106 ng/mL)
- MIC90 ([9]; strain Mtb-61164 (Karonga, lineage 2)): 0.79 nM (≈ 0.417 ng/mL)
- MIC90 ([9]; strain N0054 (Gagneux, lineage 3)): 0.85 nM (≈ 0.448 ng/mL)
- MIC90 ([9]; strain N0072 (Gagneux, lineage 1)): 1.2 nM (≈ 0.633 ng/mL)
- MIC90 ([9]; strain N1283 (Gagneux, lineage 4)): 0.73 nM (≈ 0.385 ng/mL)
- IC50 (1A2): > 20 µM
- MIC90 (H37Rv_CydBd-KO): 7 nM (≈ 3.69 ng/mL)
- IC50 (3A4): > 20 µM

Structure (SMILES): CO[C@H]1/C=C/O[C@@]2(C)Oc3c(C)c(O)c4c(O)c(c(/C=N/N5CCN(C)CC5)c(O)c4c3C2=O)NC(=O)/C(C)=C\C=C\[C@H](C)[C@H](O)[C@@H](C)[C@@H](O)[C@@H](C)[C@H](OC(C)=O)[C@@H]1C [Rifampicin, rifampicin]
- MIC50 ([7]; Mycobacterium tuberculosis): 0.1 µM (≈ 82.3 ng/mL)

Structure (SMILES): CCc1nc2ccc(Cl)cn2c1C(=O)NCc1ccc(C2CC3(C2)CN(S(=O)(=O)C(F)(F)F)C3)cc1 [JNJ-2901]
- Day of death, individual mice ([10]; monotherapy, read with the 1/0 flag of the same line (96 with flag 0), listed as J-901): 16* and 20 and 54 and 26 and 77 and 82
- Survival of mice under monotherapy ([10]; six mice per group, treated for three months, 5 days per week, bedaquiline 25, moxifloxacin 100, JNJ-2901 10 mg kg-1): inability to rescue mice
- MBC (M. tuberculosis H37Rv [1]; Mycobacterium tuberculosis, H37RV): > 0.5 µM
- IC50 (2C9): > 10 µM
- IC50 (2C19): > 10 µM
- CFU counts (WT H37Rv; Conc 8 nM): 80000000 CFU and 35000000 CFU and 53000000 CFU and 30000000 CFU
- CFU counts (WT H37Rv; Conc 32 nM): 60000000 CFU and 30000000 CFU and 17000000 CFU and 12000000 CFU
- CFU counts (WT H37Rv; Conc 128 nM): 20000000 CFU and 14000000 CFU and 12000000 CFU
- IC20 at 72 h (in vitro [11]): 11.8 µM
- MRT (in vivo [12]; iv, 1 mg/kg): 9.1 ± 0.6 h
- Vd (in vivo [12]; iv, 1 mg/kg): 4.4 ± 0.8 L/kg
- clearance (in vivo [12]; iv, 1 mg/kg): 6.4 ± 1.6 mL/min/kg
- half-life (in vivo [12]; iv, 1 mg/kg): 720 ± 12 min
- bioavailability (in vivo [12]; female, po, 5 mg/kg): 70 ± 14%
- AUC0-inf (in vivo [12]; female, po, 5 mg/kg, AUC0-inf): 9500 ± 1850 ng·h/mL
- Cmax (in vivo [12]; female, po, 5 mg/kg, Cmax): 474 ± 29 ng/mL
- Tmax (in vivo [12]; female, po, 5 mg/kg, Tmax): 7 h
- half-life (in vivo [12]; female, po, 5 mg/kg): 600 min
- Mouse Hep Clint [2]: 15 µL min-1 106 cells-1
- IC50 (2D6): > 10 µM
- IC50 (HepG2 cells [13]): > 100 µM
- Cmax (in vivo [14]): 2310 ± 767 ng/mL
- AUC0-inf (in vivo [14]; AUC0-inf): 38500 ng·h/mL
- Cmax (in vivo [14]; Cmax, Balb/c mouse, PO 5 mg kg-1, 0.5 w/v Methocel (susp.)): 2660 ± 469 ng/mL
- half-life (in vivo [14]; t½): 516 ± 168 min
- CFU counts (N1283 clinical isolate; Conc 8 nM): 9000000 CFU and 800000 CFU and 200000 CFU
- CFU counts (N1283 clinical isolate; Conc 32 nM): 110000 CFU and 300000 CFU and 80000 CFU and 50000 CFU
- CFU counts (N1283 clinical isolate; Conc 128 nM): 20000 CFU and 50000 CFU and 90000 CFU and 80000 CFU
- IC50 (2C8): > 10 µM
- AUC0-inf [15]: 28500 ± 935 ng·h/mL
- MIC90 (M. tuberculosis H37Rv [3]; Mycobacterium tuberculosis, H37RV, read-out: MIC90 (H37Rv)): 9 nM (≈ 4.87 ng/mL)
- activity against MDR-TB strains (MDR-TB strains): sub-nanomolar; also recorded: more active compared to lab-adapted strains
- CLp as % LBF ([4]; CD-1, mouse): ~ 9 % LBF
- AUC0-inf ([4]; female, CD-1, mouse, po, 5 mg/kg): 5287 ± 656 ng·h/mL
- reduction in bacterial burden [16]: 4 log
- Dog Hep Clint [5]: 13 µL min-1 106 cells-1
- Human Hep Clint [5]: 10 µL min-1 106 cells-1
- Rat Hep Clint [5]: 16 µL min-1 106 cells-1
- Dog LM Clint [5]: 13.1 µL min-1 mg protein-1
- Human LM Clint [5]: 63.3 µL min-1 mg protein-1
- Mouse LM Clint [5]: 41.0 µL min-1 mg protein-1
- Rat LM Clint [5]: 17.9 µL min-1 mg protein-1
- Cyp3A4 ind. (%ctrl) (human PXR (hPXR); 1.25 µM): 3.1 %ctrl
- Cyp3A4 ind. (%ctrl) (human PXR (hPXR); 10 µM): 11 %ctrl
- Mutagenicity (AMES II) [6]: negative
- MBC (H37Rv_CytBd-KO; Mycobacterium tuberculosis): 0.015 µM (≈ 8.11 ng/mL)
- MIC50 ([7]; Mycobacterium tuberculosis): 0.01 µM (≈ 5.41 ng/mL)
- IC50 (1A2): > 10 µM
- IC50 at 24 h (in vitro [17]): > 100 µM
- MIC90 (H37Rv_CydBd-KO; Mycobacterium tuberculosis): 6 nM (≈ 3.25 ng/mL)
- IC50 (3A4): > 10 µM
